In patent US20090291857A1, “METHODS TO IDENTIFY INHIBITORS OF THE UNFOLDED PROTEIN RESPONSE” (THE BOARD OF TRUSTEES OF THE LELAND STANFORD JUNIOR …, priority 2006, published 2009):

How the values were obtained:
IRE1α = target: T1, IRE1α (Homo sapiens, UniProt O75460); experiment: IRE1α expression and kinase function (phospho-IRE1α immunoblot); format: cell-based
T1 construct: endogenous in cells; host or cells: HT1080
Method: Cells (2×10^6) were cultured in 10-cm dishes, collected using a cell scraper at 4° C., and lysed by addition of 150 μl cell lysis buffer [50 mM Tris pH 7.4, 150 mM NaCl, 10% glycerol, 0.5% Triton X-100. 0.5% NP-40, 2 mM Na3VO4, 20 mM beta-glycerophosphate, 10 mM NaF, 1 mM DTT, 1 mM PMSF). Lysates were centrifuged for 5 min at 10,000×g, and proteins (˜40 μg) were resolved by SDS-PAGE followed by semi-dry transfer to nitrocellulose membranes. Membranes were blocked in TBS-5% milk supplemented with 0.1% Tween-20. The blots were then probed overnight with relevant antibodies, washed, and incubated for 2 hours with species-specific secondary antibodies conjugated to horseradish peroxidase. After washing in block solution, immunoreactive material was detected by enhanced chemiluminescence (SuperSignal West Dura Extended, Pierce, Inc., Rockville, Ill.).
HT1080 cells were exposed to DMSO vehicle (lane 1), irestatin 9389 (2.5 μM; lane 2) for 16 hours or Tm (5 μg/ml; lane 3) for 8 hours. Following treatments, cells were harvested, lysed, and analyzed by immunoblotting using anti-Grp78 antibody (top) or anti-actin (bottom) as a loading control. […] Cell lysates were analyzed by Western immunoblotting using anti-IRE1α (bottom) or anti-phospho-IRE1α antibodies (top). […] Lysates were analyzed by Western blot using antisera specific for phospho-JNK1 (top) or total JNK1 (bottom). […]

[1] = Histopathological analysis of major organs; format: in vivo, mouse; settings: three doses, 50 mg/kg
Method: Complete blood counts (CBC's) and clinical chemistry panels were performed on blood obtained by cardiac puncture after euthanasia with CO2. Gross necropsies were performed, all major viscera were harvested, fixed in 10% buffered neutral formalin, routinely processed for paraffin embedding, and stained with hematoxylin and eosin (H&E). Sections were analyzed by a board-certified veterinary pathologist (DMB).
Pancreas and liver specimens recovered from mice treated with three doses of either vehicle (top) or irestatin 9389 (50 mg/kg; bottom) were sectioned and stained with hematoxylin and eosin.
The increased sensitivity of irestatin-treated cells to hypoxic stress in vitro indicate that selective inhibition of IRE1α signaling could impact tumor growth. […] In contrast, XBP-1s was not detected in normal pancreas specimens (0/20), and infrequently observed in chronic pancreatitis (1/29) (FIG. 15). To explore the effects to irestatin 9389 in vivo, we first established animal dosing parameters using real-time bioluminescence imaging of SCID mice that had been implanted subcutaneously (s.c.) with tumor cells stably expressing the XBP-luciferase reporter. […] The XBP-luciferase signal returned to basal levels by 24 hours after treatment. […] (FIG. 16).

T1 sequence (O75460 19-977): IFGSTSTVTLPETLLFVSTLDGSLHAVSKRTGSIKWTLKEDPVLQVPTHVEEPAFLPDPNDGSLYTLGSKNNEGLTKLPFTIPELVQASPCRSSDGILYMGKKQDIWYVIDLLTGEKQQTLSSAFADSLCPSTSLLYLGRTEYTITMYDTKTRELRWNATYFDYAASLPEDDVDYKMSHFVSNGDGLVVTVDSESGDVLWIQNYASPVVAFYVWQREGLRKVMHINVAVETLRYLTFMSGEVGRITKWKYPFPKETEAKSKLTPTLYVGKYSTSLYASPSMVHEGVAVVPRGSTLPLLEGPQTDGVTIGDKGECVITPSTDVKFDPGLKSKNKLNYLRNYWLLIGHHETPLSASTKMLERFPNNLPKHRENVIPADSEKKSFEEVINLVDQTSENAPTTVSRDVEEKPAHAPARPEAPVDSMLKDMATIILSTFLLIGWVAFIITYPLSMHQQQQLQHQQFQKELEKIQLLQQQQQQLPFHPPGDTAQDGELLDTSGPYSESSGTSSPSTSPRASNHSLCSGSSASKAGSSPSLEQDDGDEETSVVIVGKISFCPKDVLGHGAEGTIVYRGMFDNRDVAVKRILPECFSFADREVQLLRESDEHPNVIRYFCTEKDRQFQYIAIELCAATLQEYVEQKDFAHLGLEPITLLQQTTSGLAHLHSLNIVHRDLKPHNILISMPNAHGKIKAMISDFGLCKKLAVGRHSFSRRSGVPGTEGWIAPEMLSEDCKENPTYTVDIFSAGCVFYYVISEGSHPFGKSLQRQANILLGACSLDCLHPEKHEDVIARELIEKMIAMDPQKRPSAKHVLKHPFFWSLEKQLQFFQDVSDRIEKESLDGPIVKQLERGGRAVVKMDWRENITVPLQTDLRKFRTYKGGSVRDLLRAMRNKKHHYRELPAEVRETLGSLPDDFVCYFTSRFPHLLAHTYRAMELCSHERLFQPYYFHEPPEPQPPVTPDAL

Cc1csc(NC(=O)CSc2nc3c(c(C(F)(F)F)c2C#N)CCC3)n1 [Compound 9389]
total level of IRE1α (IRE1α; 2.5 μM, 16 hours): no significant changes | levels of phospho-IRE1α after Tm (IRE1α; 16 hours preincubation 2.5 μM, then Tm 5 μg/ml): rapid increase in levels of phospho-IRE1α | histopathology of all major organs versus vehicle [1]: no significant differences
